The target of experiment [1] is T1, AbeH (uncultured bacterium, UniProt F6LWA5). The experiment is classed as biochemical, uncultured soil actinomycetes. The conditions noted are these: NaCl or NaBr reaction. On the procedure: (§1) To test the ability of BorH and AbeH to chlorinate and brominate other substrates, 100 μL reactions containing 5 μM AbeH or BorH, 10 μM of holo-AbeF or holo-BorF, 100 mM NaCl or NaBr, 2.5 mM NADH, and 0.5 mM substrate in HEPES pH 8.0 were incubated for 12 h at 37 °C with shaking at 230 rpm. The reactions were stopped by heating at 95 °C for 5 min and centrifuged at 12,000g for 5 min. Clarified reaction mixtures were analyzed using RP-HPLC on a Kromasil C18 column (100 Å pore size, 4.6 × 250 mm) mounted on a Waters 2695 HPLC. The gradient was as follows: 0–7.5 min, 5–50% B; 7.5–14 min, 50–100%; 14–25 min, 100% B; 25–40 min 100–5% B with flow rate 0.6 mL/min (Solvent A = H2O/CH3CN 95:5, 0.1% TFA; Solvent B = H2O/CH3CN 5/95, 0.1% TFA). Substrates and products were detected by monitoring UV absorbance at the λmax for each substrate. Product peak fractions were analyzed using ESI-MS on a SYNAPT HDMS mass spectrometer in positive ion mode with leucine enkephalin internal standard.
T1 sequence (F6LWA5 entry or part of it): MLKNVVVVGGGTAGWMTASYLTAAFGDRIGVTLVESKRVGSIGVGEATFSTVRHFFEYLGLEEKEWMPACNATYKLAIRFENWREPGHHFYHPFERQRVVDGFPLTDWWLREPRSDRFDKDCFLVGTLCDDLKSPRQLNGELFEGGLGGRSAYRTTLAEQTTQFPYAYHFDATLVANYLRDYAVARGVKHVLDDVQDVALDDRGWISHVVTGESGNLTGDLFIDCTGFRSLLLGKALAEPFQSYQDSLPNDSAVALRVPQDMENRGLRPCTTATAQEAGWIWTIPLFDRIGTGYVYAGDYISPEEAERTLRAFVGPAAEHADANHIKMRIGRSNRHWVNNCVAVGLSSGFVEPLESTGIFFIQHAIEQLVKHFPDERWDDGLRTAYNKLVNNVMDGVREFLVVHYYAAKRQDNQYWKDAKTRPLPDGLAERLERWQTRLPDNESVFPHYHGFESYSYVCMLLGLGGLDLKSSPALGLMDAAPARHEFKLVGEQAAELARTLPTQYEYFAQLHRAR

In experiment [2] the target is T2, BorH (uncultured bacterium, UniProt M9QSI0). The settings on record: previously shown; cited from earlier work.
T2 sequence (M9QSI0 1-529): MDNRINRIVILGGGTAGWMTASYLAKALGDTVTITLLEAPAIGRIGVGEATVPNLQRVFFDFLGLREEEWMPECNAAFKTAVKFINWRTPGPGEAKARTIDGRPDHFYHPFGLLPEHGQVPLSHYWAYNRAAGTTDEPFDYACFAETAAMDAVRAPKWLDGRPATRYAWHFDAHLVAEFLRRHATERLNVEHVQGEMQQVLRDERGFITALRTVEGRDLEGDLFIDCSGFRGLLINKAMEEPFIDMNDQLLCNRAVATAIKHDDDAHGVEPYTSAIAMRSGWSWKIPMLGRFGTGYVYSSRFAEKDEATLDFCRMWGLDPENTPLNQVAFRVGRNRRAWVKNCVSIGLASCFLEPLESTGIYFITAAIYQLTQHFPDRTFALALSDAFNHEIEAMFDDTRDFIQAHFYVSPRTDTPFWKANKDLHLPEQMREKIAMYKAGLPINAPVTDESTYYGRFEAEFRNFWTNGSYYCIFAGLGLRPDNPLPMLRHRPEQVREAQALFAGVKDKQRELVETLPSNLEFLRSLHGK
The target in experiment [3] is T2, BorH. The experiment can be described thus: In vitro halogenation of aromatic substrates by BorH (with BorF, NADH, NaCl or NaBr; RP-HPLC). The experiment is classed as biochemical, uncultured soil actinomycetes. The conditions noted are these: for BorH bromination compared with chlorination of the substrate, in words: same reaction conditions; for Halogenation (chlorination/bromination) of the substrate by BorH, in words: NaCl or NaBr reaction. On the procedure: as §1

The target of experiment [4] is T2, BorH. The experiment can be described thus: Isothermal titration calorimetry, ligand into BorH. The experiment is classed as binding, uncultured soil actinomycetes. On the procedure:
(§2) Solutions of AbeH, BorH, FAD (Chem-Implex), and Trp (Acros Organics) were prepared in the same buffer and degassed under vacuum at 30 °C for 20 min before loading in the syringe or cell. To analyze formation of binary complexes, AbeH or BorH was placed inside the cell, and ligand (FAD or Trp) was injected. For ternary complex titration, one ligand was preincubated with the macromolecule for 30 min at 30 °C to form binary complexes of AbeH/FAD, AbeH/Trp, BorH/FAD, and BorH/Trp before titrating with the second ligand. To test FADH2 binding to AbeH and BorH, FAD was reduced to FADH2 using sodium dithionite and stored under N2. Formation of FADH2 by sodium dithionite was verified using absorbance and fluorescence spectrophotometry.
(§3) ITC experiments were performed with reference power set to 10 μcal/s and Milli-Q water in the reference cell. All experiments were done with a pretitration delay of 20 min, a 5 min interval between injections, and a filter period of 2 s in high feedback gain mode. All experiments were performed at 310 rpm to mix the components in cell and titrant. All other VP-ITC instrumental parameters were set to default settings. Heats of dilution for all titrants were measured by titrating ligand into buffer for binary complex titrations, and by titrating ligand into a solution containing the other ligand but no protein for ternary complex titration.
(§4) Titrations were analyzed by manually integrating each injection, subtracting the heat of dilution, and carrying out nonlinear least-squares fit of the calorimetric binding data to a one-site model using Origin 7.0 (Origin Lab). Trp binding experiments were subtracted by point-by-point heat of dilution, and FAD and FADH2 binding experiments were subtracted using the mean heat of the last three injections. For the Trp binding data, n was fixed to 1 based on expected stoichiometry of 1:1 based on FDH crystal structures and as proposed for lower c-value titrations in the literature.[23],[25],[82] The other parameters were not constrained during fitting.
A general note: ITC needs no label: the signal is the heat of the interaction.

Experiment [5] deals with T1, AbeH. The experiment is described as follows: Isothermal titration calorimetry, ligand into AbeH. It is filed as binding, uncultured soil actinomycetes. As to the method:
as §2, with “ITC experiments were performed using a VP-ITC isothermal titration calorimeter (MicroCal) in 20 mM HEPES pH 7.5, 350 mM NaCl, 1 mM ethylenediamine tetraacetic acid (EDTA) and 15% (v/v) glycerol. Solutions” for “Solutions”
as §3
1.2 mM FAD (2 μL/1 and 5 μL/19 injections) into 18 μM AbeH (Figure 4A)
0.12 mM FADH2 (2 μL/1 and 15 μL/19 injections) into 7 μM AbeH in the presence of sodium dithionite (Figure 4B)
1.4 mM Trp (3 μL/1 and 10 μL/29 injections) into 43 μM AbeH (Figure S7)
16 mM Trp (2 μL/1 and 10 μL/29 injections) into 18 μM AbeH (Figure 5A)
as §4

In experiment [6] the target is BorF. The conditions noted are these: read-out: KD, flavin binding to BorF; cited from earlier work.
Experiment [7] has as its target AbeF. The conditions noted are these: read-out: KD, flavin binding to AbeF; cited from earlier work.

SMILES strings stand for the structures. “And” between values parts separate entries of the source, which are not always exact repeats. Equal values may be shown once. “Also recorded” adds a separate entry of the source.

One may read the Kd as the equilibrium constant for the complex coming apart.

For `O=C(O)CCc1c[nH]c2ccccc12` [3-indolepropionic acid], the “Halogenation (chlorination/bromination) of the substrate by AbeH, in words” value in experiment [1] is recorded as “halogenated”. In addition, in experiment [2], the “Halogenation of the substrate by BorH, in words” value (from here on “Halogenation of the substrate”) was “halogenate”.

For the molecule `N#Cc1ccc2[nH]ccc2c1` [5-cyanoindole], the “Halogenation (chlorination/bromination) of the substrate by AbeH, in words” value in experiment [1] is “did not halogenate; also recorded: No activity”. Further, in experiment [3], the “BorH bromination compared with chlorination of the substrate, in words” value was “higher rate of bromination than chlorination”.

With `N[C@@H](Cc1c[nH]c2ccc(O)cc12)C(=O)O` [5-hydroxytryptophan], the “Halogenation (chlorination/bromination) of the substrate by AbeH, in words” value in experiment [1] is “did not halogenate; also recorded: No activity”.

For the molecule `Nc1ccc2c(c1)NC(=O)CO2` [6-amino-2h-1,4-benzoxazin-3(4H)-one, 6-amino-2H-1,4-benzoxazin-3(4H)-one], the “Halogenation (chlorination/bromination) of the substrate by AbeH, in words” value in experiment [1] was “did not halogenate; also recorded: No activity”. Besides, in experiment [3], the “Halogenation (chlorination/bromination) of the substrate by BorH, in words” value is “could halogenate” and the “BorH bromination compared with chlorination of the substrate, in words” value is “higher rate of bromination than chlorination”.

`Nc1ccc2ncccc2c1` [6-aminoquinoline]: the “Halogenation (chlorination/bromination) of the substrate by AbeH, in words” value in experiment [1] was “chlorinated and brominated”. Moreover, in experiment [3], the “Halogenation (chlorination/bromination) of the substrate by BorH, in words” value is reported as “halogenated” and the “BorH bromination compared with chlorination of the substrate, in words” value is “higher rate of bromination than chlorination”. In experiment [2], the “Halogenation of the substrate” value was “halogenate”.

In the case of `Nc1ccc2cccnc2c1` [7-aminoquinoline], in experiment [1], the “Halogenation (chlorination/bromination) of the substrate by AbeH, in words” value was “chlorinated and brominated”. The “Halogenation (chlorination/bromination) of the substrate by BorH, in words” value in experiment [3] is reported as “could not halogenate; also recorded: No activity”.

For `NC(=O)c1ccccc1N` [Anthranilamide], in experiment [1], the “Halogenation (chlorination/bromination) of the substrate by AbeH, in words” value is given as “halogenated”. Also, in experiment [3], the “Halogenation (chlorination/bromination) of the substrate by BorH, in words” value is “halogenated”. Moreover, the “Halogenation of the substrate” value in experiment [2] is on record as “halogenate”.

Regarding `Cc1cc2c(cc1C)N(C[C@H](O)[C@H](O)[C@H](O)COP(=O)(O)OP(=O)(O)OC[C@H]1O[C@@H](n3cnc4c(N)ncnc43)[C@H](O)[C@@H]1O)c1[nH]c(=O)[nH]c(=O)c1N2` [FADH2], the Kd was 200 nM and 210 nM in experiment [4] (ITC, read-out: KD, binding to BorH, ITC); 100 nM and 120 nM in experiment [5] (ITC, read-out: KD, binding to AbeH, ITC); 800 nM in experiment [6]; 1500 nM in experiment [7]. The “-TDS (-TΔS, ITC, Table S3)” value came to 15 kcal/mol in experiment [4] (cell BorH) and 5.7 kcal/mol in experiment [5] (cell AbeH). Further, the “DG (ΔG, ITC, Table S3)” value in experiment [4] (cell BorH) was -9.2 kcal/mol; in experiment [5] (cell AbeH) it was -9.6 kcal/mol. Further, the “DH (ΔH, ITC, Table S3)” value in experiment [4] (cell BorH) is -24.2 ± 1.6 kcal/mol; in experiment [5] (cell AbeH) it was -15.3 ± 0.7 kcal/mol. Further, the “n (ITC, Table S3)” value amounted to 0.97 ± 0.05 in experiment [4] (cell BorH) and 0.82 ± 0.03 in experiment [5] (cell AbeH).

As for `c1ccc2[nH]ccc2c1` [Indole], in experiment [1], the “Halogenation (chlorination/bromination) of the substrate by AbeH, in words” value was “efficiently chlorinated and brominated”. In addition, the “BorH bromination compared with chlorination of the substrate, in words” value in experiment [3] is listed as “higher rate of bromination than chlorination”.

In the case of `NCCc1c[nH]c2ccc(O)cc12` [Serotonin], the “Halogenation (chlorination/bromination) of the substrate by AbeH, in words” value in experiment [1] was “did not halogenate; also recorded: No activity”.

`NCCc1c[nH]c2ccccc12` [Tryptamine]: in experiment [1], the “Halogenation (chlorination/bromination) of the substrate by AbeH, in words” value is given as “No activity”. The “Halogenation of the substrate” value in experiment [2] is recorded as “halogenate”.

For the molecule `Nc1ccccc1C(=O)CC(N)C(=O)O` (centres unmarked) [kynurenine], in experiment [2], the “Halogenation of the substrate” value is given as “halogenate”.

The values above are taken from PMC11840605, “Crystallographic and Thermodynamic Evidence of Negative Coupling in the Flavin-Dependent Tryptophan Halogenases AbeH and BorH” (ACS Omega, 2025).
